The results in this text go back to US6710048B2, “Pyrazine derivatives as modulators of tyrosine kinases” (Ortho-McNeil Pharmaceutical, Inc., priority 2000, dated 2004).

SMILES strings stand for the structures.

For assay [1], the system named is PC-3 prostate adenocarcinoma. Briefly: Cell proliferation assay (14C-thymidine incorporation), PC-3. Type of assay: cell-based. The settings on record: Homo sapiens, read-out: Inhibition of cell proliferation IC50. In a few lines:
(§1)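 Cells plated 24 h, then compound in DMSO added for 24 h before 0.2 μCi/well methyl-14C-thymidine and another 24 h at 37° C., 5% CO2 with drug present. Incorporated 14C-thymidine counted in scintillating plates after PBS washes; DMSO-only wells as controls.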

Assay [2] relates to SK-OV-3 ovarian adenocarcinoma. Briefly: Cell proliferation assay (14C-thymidine incorporation), SK-OV-3. The settings on record: Homo sapiens, read-out: Inhibition of cell proliferation IC50. Type of assay: cell-based. The protocol: The ability of a test compound to inhibit the proliferation of cell growth was determined by measuring incorporation of ^14C-labelled thymidine into newly synthesized DNA within the cells. This method was used on cell lines derived from carcinomas originating from several tissues such as HeLa cervical adenocarcinoma (American Type Culture Collection (ATCC), Virginia, Cat. #CCL-2), A375 malignant melanoma (ATCC CRL-1619), SK-OV-3 ovarian adenocarcinoma (ATCC HTB-77) HCT-116 colon carcinoma (CCL-247) and PC-3 prostate adenocarcinoma (ATCC CRL-1435). The method was also used on primary cells such as HUVEC endothelial cells (ATCC CRL-1730). In this way the effect of a compound on cell growth of cells with many different phenotypes can be determined. Cells were trypsinized and counted and 3000-8000 cells were added to each well of a 96-well CytoStar tissue culture treated scintillating microplate (Amersham #RPNQ0160) in complete medium in a volume of 100 μl. Cells were incubated for 24 hours in complete medium at 37° C. in an atmosphere containing 5% CO2.
Next, 1 μl of test compound in 100% DMSO was added to the wells of the plate. DMSO only was added to control wells. Cells were incubated for 24 more hours in complete medium at 37° C. in an atmosphere containing 5% CO2. Methyl ^14C-thymidine 56 mCi/mmol (NEN #NEC568 or Amersham #CFA532) was diluted in complete medium and 0.2 μCi/well was added to each well of the CytoStar plate in a volume of 20 μl. The plate was incubated for 24 hours at 37° C. plus 5% CO2 in drug plus ^14C-thymidine. The contents of the plate were discarded into a ^14C radioactive waste container by inverting the plate and the plate was washed twice with 200 μl PBS. 200 μl of PBS is then added to each well. The top of the plate was sealed with a transparent plate sealer and a white plate backing sealer (Packard #6005199) was applied to the bottom of the plate. The degree of Methyl ^14C-thymidine incorporation was quantified on a Packard Top Count.
(Dividing cells build labelled thymidine or BrdU into new DNA.)

Assay [3] concerns HeLa cervical adenocarcinoma. Briefly: Cell proliferation assay (14C-thymidine incorporation), HeLa. The class given is cell-based. The settings on record: Homo sapiens, read-out: Inhibition of cell proliferation IC50. Put shortly: as §1
The target in assay [4] is T1, EGFR (epidermal growth factor receptor) (Homo sapiens, UniProt P00533).
T1 construct: is purified from human A431 cell membranes; purchased Sigma E3641; host or cells: A431 cell membranes
T1 sequence (P00533 25-1210): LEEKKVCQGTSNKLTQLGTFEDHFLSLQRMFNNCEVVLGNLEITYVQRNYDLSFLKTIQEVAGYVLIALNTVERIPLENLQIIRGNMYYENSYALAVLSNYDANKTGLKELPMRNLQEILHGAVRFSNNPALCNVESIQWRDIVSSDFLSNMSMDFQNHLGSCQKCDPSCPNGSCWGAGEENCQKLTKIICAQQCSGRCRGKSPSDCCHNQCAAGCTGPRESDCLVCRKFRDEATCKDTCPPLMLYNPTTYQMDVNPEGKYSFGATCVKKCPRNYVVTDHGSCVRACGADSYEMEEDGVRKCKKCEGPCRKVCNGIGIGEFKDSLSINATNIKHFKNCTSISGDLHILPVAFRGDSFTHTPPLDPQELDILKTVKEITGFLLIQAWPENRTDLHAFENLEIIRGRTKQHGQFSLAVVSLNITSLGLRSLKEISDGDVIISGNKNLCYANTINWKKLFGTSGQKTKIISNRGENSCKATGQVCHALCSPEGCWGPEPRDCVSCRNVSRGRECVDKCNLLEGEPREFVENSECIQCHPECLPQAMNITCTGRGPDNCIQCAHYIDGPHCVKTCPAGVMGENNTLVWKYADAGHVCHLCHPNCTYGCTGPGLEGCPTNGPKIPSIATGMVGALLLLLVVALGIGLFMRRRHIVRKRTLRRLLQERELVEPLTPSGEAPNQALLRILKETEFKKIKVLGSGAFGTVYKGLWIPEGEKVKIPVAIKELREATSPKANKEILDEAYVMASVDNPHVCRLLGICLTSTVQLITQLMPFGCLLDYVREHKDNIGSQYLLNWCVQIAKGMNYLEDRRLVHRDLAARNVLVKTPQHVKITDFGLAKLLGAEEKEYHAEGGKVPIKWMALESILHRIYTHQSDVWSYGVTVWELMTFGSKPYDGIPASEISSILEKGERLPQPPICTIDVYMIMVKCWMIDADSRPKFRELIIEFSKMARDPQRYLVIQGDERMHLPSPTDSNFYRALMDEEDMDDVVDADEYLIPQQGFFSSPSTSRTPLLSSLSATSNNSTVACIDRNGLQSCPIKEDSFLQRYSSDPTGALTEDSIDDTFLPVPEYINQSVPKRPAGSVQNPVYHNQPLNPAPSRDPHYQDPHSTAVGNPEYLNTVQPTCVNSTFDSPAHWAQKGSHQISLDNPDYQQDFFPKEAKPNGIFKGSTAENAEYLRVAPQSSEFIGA
Briefly: EGF-R kinase selectivity assay. The class given is biochemical. The settings on record: Table 4 kinase selectivity. The protocol: Assays to test compound inhibition of other kinases were preformed using methods that measure the amount of phosphorylation of a biotinylated peptide substrate. Biotinylated peptide substrates were selected from the literature as appropriate for the enzyme being evaluated. […] Assay conditions vary slightly for each protein kinase, for example, insulin receptor kinase requires 10 mM MnCl2 for activity and Calmodulin-dependent protein kinase requires calmodulin and 2 mM CaCl2. The reaction mixture was dispensed into the wells of a streptavidin coated Flashplate and 1 μl drug stock in 100% DMSO was added to a 100 μl reaction volume resulting in a final concentration of 1% DMSO in the reaction. Enzyme was diluted in 50 mM Tris-HCl pH=8.0, 0.1% BSA and added to each well. The reaction was incubated for one hour at 30° C. in the presence of compound. […] The plate was read on a scintillation counter to determine ^33P-γ-ATP incorporated into the immobilized peptide. […] A maximum and minimum signal for the assay was determined on each plate. The IC50 was calculated from the dose response curve of the percent inhibition of the maximum signal in the assay according to the formula [max signal−background/test compound signal−background (100)=% inhibition] by graphing the percent inhibition against the log concentration of test compound. […]

As for `CN(C)CCNc1cncc(-c2cncc(Nc3cccc(Cl)c3)n2)c1` [Cmd 33, N′-[5-[6-[(3-chlorophenyl)amino]pyrazinyl]-3-pyridinyl]-N^2,N^2-dimethyl-1,2-ethanediamine], the values for the IC50 in assay [1], in assay [2] and in assay [3] were 22.9 µM, 21.5 µM and 2.23 µM, respectively.
Regarding `CN(C)CCCNc1cncc(-c2cncc(Nc3cccc(Cl)c3)n2)c1` [Cmd 35], in assay [4], the IC50 came to 20.7 µM.
Same read-out and setting: then `O=C(NCCCO)c1cncc(-c2cncc(Nc3cccc(Cl)c3)n2)c1` [Cmd 39], with 6.06 µM.
For `Clc1cccc(Nc2cncc(-c3cncc(NCCCN4CCCCC4)c3)n2)c1` [Cmd 73], the IC50 in assay [2] worked out at 3.78 µM; in assay [3] it was 2.2 µM.
